Results reported in PubChem BioAssay (NCI).
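Cells were grown in 96-well plates and exposed to each compound for 48 hours at five concentrations; endpoints were interpolated linearly between bracketing concentrations, or set to the highest concentration if not reached. At the TGI there is no net growth.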

Key:
Experiment in all cases: NCI tumour cell line growth inhibition, 48 h
KM12 colon = test system: KM12 colon
SK-MEL-5 melanoma = test system: SK-MEL-5 melanoma
HL-60(TB) leukemia = test system: HL-60(TB) leukemia
OVCAR-8 ovarian = test system: OVCAR-8 ovarian
NCI-H226 lung = test system: NCI-H226 lung
LOX IMVI melanoma = test system: LOX IMVI melanoma
UO-31 renal = test system: UO-31 renal
SW-620 colon = test system: SW-620 colon
SF-539 CNS = test system: SF-539 CNS
MCF7 breast = test system: MCF7 breast

CCOC(=O)C(C)(C)Oc1ccc2c(=O)cc(-c3ccccc3)oc2c1
TGI (KM12 colon): 35.9 µM | TGI (SK-MEL-5 melanoma): 28.2 µM | TGI (HL-60(TB) leukemia): 32.8 µM | TGI (OVCAR-8 ovarian): 51.4 µM | TGI (NCI-H226 lung): 47 µM | TGI (LOX IMVI melanoma): 37.1 µM | TGI (UO-31 renal): > 100 µM | TGI (SW-620 colon): 48.5 µM | TGI (SF-539 CNS): 38.2 µM

O=C1/C(=C/c2ccccc2)CCc2ccc(Cl)nc21
TGI (MCF7 breast): 13.2 µM | TGI (KM12 colon): 7.15 µM | TGI (SK-MEL-5 melanoma): 20.1 µM | TGI (HL-60(TB) leukemia): 0.705 µM | TGI (OVCAR-8 ovarian): > 100 µM | TGI (NCI-H226 lung): 61.9 µM | TGI (UO-31 renal): 20.2 µM | TGI (SW-620 colon): 18.6 µM | TGI (SF-539 CNS): 15.4 µM

Cc1cc2ccccc2c[n+]1CC(O)C[n+]1cc2ccccc2cc1C
TGI (MCF7 breast): > 100 µM | TGI (KM12 colon): > 100 µM | TGI (SK-MEL-5 melanoma): > 100 µM | TGI (OVCAR-8 ovarian): > 100 µM | TGI (NCI-H226 lung): > 100 µM | TGI (LOX IMVI melanoma): > 100 µM | TGI (UO-31 renal): > 100 µM | TGI (SW-620 colon): > 100 µM | TGI (SF-539 CNS): > 100 µM

CC1(C)O[C@@H](CO)[C@H]([C@@]23OC[C@H]4OC(C)(C)OC4[C@@H]2OC(C)(C)O3)O1 (stereo partly specified)
TGI (MCF7 breast): > 100 µM | TGI (KM12 colon): > 100 µM | TGI (SK-MEL-5 melanoma): > 100 µM | TGI (HL-60(TB) leukemia): > 100 µM | TGI (OVCAR-8 ovarian): > 100 µM | TGI (NCI-H226 lung): > 100 µM | TGI (LOX IMVI melanoma): > 100 µM | TGI (UO-31 renal): > 100 µM | TGI (SW-620 colon): > 100 µM

COc1cc2cc(C(=O)N3CC(CCl)c4c3cc(N)c3ccccc43)[nH]c2cc1OCCN(C)C (stereo unspecified)
TGI (MCF7 breast): 6.52 µM | TGI (KM12 colon): 0.0116 µM | TGI (OVCAR-8 ovarian): 0.0571 µM | TGI (NCI-H226 lung): 0.0224 µM | TGI (UO-31 renal): < 0.005 µM

N#Cc1c(Nc2ccc(F)cc2)[n+]([O-])c2ccc(Cl)cc2[n+]1[O-]
TGI (MCF7 breast): 6.1 µM | TGI (KM12 colon): > 100 µM | TGI (SK-MEL-5 melanoma): 23.1 µM | TGI (OVCAR-8 ovarian): > 100 µM | TGI (NCI-H226 lung): 28.8 µM | TGI (LOX IMVI melanoma): 4.27 µM | TGI (UO-31 renal): 42.1 µM | TGI (SW-620 colon): > 100 µM | TGI (SF-539 CNS): 7.31 µM

CS(=O)(=O)OCCN1CCC2(CC1)SSC1(CCN(CCOS(C)(=O)=O)CC1)S2
TGI (MCF7 breast): 44.9 µM | TGI (KM12 colon): > 100 µM | TGI (SK-MEL-5 melanoma): > 100 µM | TGI (HL-60(TB) leukemia): 59.7 µM | TGI (OVCAR-8 ovarian): > 100 µM | TGI (LOX IMVI melanoma): 97.8 µM | TGI (UO-31 renal): > 100 µM | TGI (SW-620 colon): > 100 µM | TGI (SF-539 CNS): > 100 µM

COc1ccc(/C=C/c2cc(O)cc(OC)c2)cc1
TGI (MCF7 breast): > 100 µM | TGI (KM12 colon): > 100 µM | TGI (SK-MEL-5 melanoma): > 100 µM | TGI (HL-60(TB) leukemia): > 100 µM | TGI (OVCAR-8 ovarian): > 100 µM | TGI (NCI-H226 lung): > 100 µM | TGI (UO-31 renal): > 100 µM | TGI (SW-620 colon): > 100 µM | TGI (SF-539 CNS): > 100 µM

COc1cccc(NC(=O)CSc2nnc(-c3ccc(N=Cc4ccc(Cl)cc4)cc3)o2)c1
TGI (KM12 colon): 31.3 µM | TGI (SK-MEL-5 melanoma): 34.6 µM | TGI (HL-60(TB) leukemia): 87.8 µM | TGI (OVCAR-8 ovarian): 58.4 µM | TGI (NCI-H226 lung): 43.4 µM | TGI (LOX IMVI melanoma): 37.7 µM | TGI (UO-31 renal): 32.7 µM | TGI (SW-620 colon): 37.9 µM

c1ccc(CCN2CCCCCC2)nc1
TGI (MCF7 breast): > 100 µM | TGI (KM12 colon): > 100 µM | TGI (SK-MEL-5 melanoma): > 100 µM | TGI (OVCAR-8 ovarian): > 100 µM | TGI (NCI-H226 lung): > 100 µM | TGI (LOX IMVI melanoma): > 100 µM | TGI (UO-31 renal): > 100 µM | TGI (SW-620 colon): > 100 µM

COC(=O)[C@H](C)N1C(=O)N[C@@H](C(C)C)C1=O
TGI (MCF7 breast): > 100 µM | TGI (KM12 colon): > 100 µM | TGI (SK-MEL-5 melanoma): > 100 µM | TGI (OVCAR-8 ovarian): > 100 µM | TGI (NCI-H226 lung): > 100 µM | TGI (LOX IMVI melanoma): > 100 µM | TGI (UO-31 renal): > 100 µM | TGI (SW-620 colon): > 100 µM | TGI (SF-539 CNS): > 100 µM

CN(CCc1ccc(Cl)c(Cl)c1)[C@H]1CCCC[C@H]1N1CCCC1
TGI (MCF7 breast): > 100 µM | TGI (KM12 colon): > 100 µM | TGI (SK-MEL-5 melanoma): > 100 µM | TGI (HL-60(TB) leukemia): > 100 µM | TGI (OVCAR-8 ovarian): > 100 µM | TGI (NCI-H226 lung): > 100 µM | TGI (LOX IMVI melanoma): > 100 µM | TGI (UO-31 renal): > 100 µM | TGI (SW-620 colon): > 100 µM

CCCCc1c2c(nc3c1CCc1cc4c(nc1-3)-c1nc3c(c(CCCC)c1CC4)CCC/C3=C\c1ccccc1)/C(=C/c1ccccc1)CCC2
TGI (KM12 colon): > 100 µM | TGI (SK-MEL-5 melanoma): > 100 µM | TGI (HL-60(TB) leukemia): > 100 µM | TGI (OVCAR-8 ovarian): > 100 µM | TGI (NCI-H226 lung): > 100 µM | TGI (LOX IMVI melanoma): > 100 µM | TGI (UO-31 renal): > 100 µM | TGI (SW-620 colon): > 100 µM | TGI (SF-539 CNS): > 100 µM

COC(=O)c1sc(=S)sc1SCc1ccccc1CSc1sc(=S)sc1C(=O)OC
TGI (MCF7 breast): > 100 µM | TGI (KM12 colon): > 100 µM | TGI (SK-MEL-5 melanoma): > 100 µM | TGI (OVCAR-8 ovarian): > 100 µM | TGI (NCI-H226 lung): > 100 µM | TGI (LOX IMVI melanoma): > 100 µM | TGI (UO-31 renal): > 100 µM | TGI (SW-620 colon): > 100 µM

CC(C)CCC[C@@H](C)[C@H]1CC[C@H]2[C@@H]3CC=C4C[C@@H](OC(=O)c5cccc6c(=O)c7ccccc7[nH]c56)CC[C@]4(C)[C@H]3CC[C@]12C
TGI (MCF7 breast): > 75 µM | TGI (KM12 colon): > 75 µM | TGI (SK-MEL-5 melanoma): > 75 µM | TGI (OVCAR-8 ovarian): > 75 µM | TGI (NCI-H226 lung): > 75 µM | TGI (LOX IMVI melanoma): > 75 µM | TGI (UO-31 renal): > 75 µM | TGI (SW-620 colon): > 75 µM | TGI (SF-539 CNS): > 75 µM

COc1ccc(C(O)c2ccc3c(c2)OCO3)cc1 (stereo unspecified)
TGI (MCF7 breast): > 100 µM | TGI (KM12 colon): > 100 µM | TGI (HL-60(TB) leukemia): > 100 µM | TGI (OVCAR-8 ovarian): > 100 µM | TGI (NCI-H226 lung): > 100 µM | TGI (LOX IMVI melanoma): > 100 µM | TGI (UO-31 renal): > 100 µM | TGI (SW-620 colon): > 100 µM | TGI (SF-539 CNS): > 100 µM

CCOC(=O)c1ccc2nc(NC(=O)COC(=O)CSc3nc(C)cc(C)n3)sc2c1
TGI (MCF7 breast): > 100 µM | TGI (KM12 colon): > 100 µM | TGI (SK-MEL-5 melanoma): > 100 µM | TGI (HL-60(TB) leukemia): 33.9 µM | TGI (OVCAR-8 ovarian): > 100 µM | TGI (LOX IMVI melanoma): > 100 µM | TGI (UO-31 renal): 38.5 µM | TGI (SW-620 colon): > 100 µM | TGI (SF-539 CNS): 80.6 µM

Cc1cc(C)c(S(=O)(=O)N(CCCCN)OCCCN)c(C)c1
TGI (MCF7 breast): 35.3 µM | TGI (KM12 colon): 35 µM | TGI (SK-MEL-5 melanoma): 39.9 µM | TGI (OVCAR-8 ovarian): 32.8 µM | TGI (NCI-H226 lung): 31.8 µM | TGI (LOX IMVI melanoma): 31.9 µM | TGI (UO-31 renal): 31.8 µM | TGI (SW-620 colon): 32.6 µM | TGI (SF-539 CNS): 41.6 µM

CN=C(Nn1cnnc1)OC
TGI (MCF7 breast): > 100 µM | TGI (KM12 colon): > 100 µM | TGI (SK-MEL-5 melanoma): > 100 µM | TGI (OVCAR-8 ovarian): > 100 µM | TGI (UO-31 renal): > 100 µM | TGI (SW-620 colon): > 100 µM

O=C(/C=C/c1ccc(-c2ccccc2[N+](=O)[O-])o1)NCc1ccc(C(=O)NCCc2ccccc2)cc1
TGI (MCF7 breast): > 100 µM | TGI (KM12 colon): > 100 µM | TGI (SK-MEL-5 melanoma): > 100 µM | TGI (OVCAR-8 ovarian): > 100 µM | TGI (NCI-H226 lung): > 100 µM | TGI (LOX IMVI melanoma): > 100 µM | TGI (UO-31 renal): > 100 µM | TGI (SW-620 colon): > 100 µM | TGI (SF-539 CNS): > 100 µM

CC(=O)NC1C(CO)O[C@@H]2OC(C)(C)O[C@H]12 (stereo partly specified)
TGI (MCF7 breast): > 100 µM | TGI (KM12 colon): > 100 µM | TGI (HL-60(TB) leukemia): > 100 µM | TGI (OVCAR-8 ovarian): > 100 µM | TGI (LOX IMVI melanoma): > 100 µM | TGI (UO-31 renal): > 100 µM | TGI (SW-620 colon): > 100 µM | TGI (SF-539 CNS): > 100 µM

S=C(N/N=C\C=N/NC(=S)N1CCCCCC1)N1CCCCCC1
TGI (MCF7 breast): > 100 µM | TGI (KM12 colon): > 100 µM | TGI (SK-MEL-5 melanoma): > 100 µM | TGI (OVCAR-8 ovarian): > 100 µM | TGI (NCI-H226 lung): > 100 µM | TGI (LOX IMVI melanoma): > 100 µM | TGI (UO-31 renal): > 100 µM | TGI (SW-620 colon): > 100 µM | TGI (SF-539 CNS): > 100 µM

CCOC(=O)c1ccc(C(=O)C(C(C)=O)C(=O)OC(C)(C)C)n1C (stereo unspecified)
TGI (MCF7 breast): > 100 µM | TGI (KM12 colon): > 100 µM | TGI (SK-MEL-5 melanoma): > 100 µM | TGI (HL-60(TB) leukemia): > 100 µM | TGI (OVCAR-8 ovarian): > 100 µM | TGI (NCI-H226 lung): > 100 µM | TGI (LOX IMVI melanoma): > 100 µM | TGI (UO-31 renal): > 100 µM | TGI (SW-620 colon): > 100 µM
